In patent publication US12187722B2, “Small molecule inhibitors of TEAD transcription factors” (The General Hospital Corporation, priority 2019, dated 2025):

The compounds below were run against TEAD2 (Homo sapiens (Human), UniProt Q15562) (assay: In vitro palmitoylation (TEAD2 autopalmitoylation, streptavidin blot)). Details: compound at 10 μM; Table 2.
Assay type: biochemical
Procedure: Recombinant GST-TEAD2 or His6TEAD2 (500 ng) protein was pre-incubated with the compounds at indicated concentrations for 15 min. and then incubated with 1 μM of alkyne palmitoyl-5 CoA (Cayman Chemical) for 30 min or 50 mM MES, pH 6.4, followed by Click reaction with biotin-azide as previously described (Zheng, B. et al., J. Am. Chem. Soc., 2013, 135, 7082-7085). Click reaction was performed with 100 μM biotin-azide, 1 mM tris(2-carboxyethyl) phosphine hydrochloride (TCEP), 100 μM tris[(1-benzyl-1H-1,2,3-triazol-4-yl) methyl] amine (TBTA) and 1 mM CuSO4 for 1 h at RT.
The reactions were terminated by the addition of 12 μL of 6×SDS-sample loading buffer (50 mM Tris-HCl, pH 6.8, 6% SDS, 48% Glycerol, 0.03% Bromophenol Blue, 30 mM EDTA, 9% MeSH). Samples were analysed by SDS-PAGE and Western blot was performed by probing with streptavidin HRP and histidine HRP antibodies independently. Bands intensity obtained from streptavidin blot were quantified using BIORAD, Gel doc system and the percentage of inhibition of Tead2 auto palmitoylation is determined by comparing to the DMSO control treated samples.
These compounds were tested for activity in inhibiting TEAD2 palmitoylation in the assay described above.

TEAD2, sequence (Q15562 whole entry): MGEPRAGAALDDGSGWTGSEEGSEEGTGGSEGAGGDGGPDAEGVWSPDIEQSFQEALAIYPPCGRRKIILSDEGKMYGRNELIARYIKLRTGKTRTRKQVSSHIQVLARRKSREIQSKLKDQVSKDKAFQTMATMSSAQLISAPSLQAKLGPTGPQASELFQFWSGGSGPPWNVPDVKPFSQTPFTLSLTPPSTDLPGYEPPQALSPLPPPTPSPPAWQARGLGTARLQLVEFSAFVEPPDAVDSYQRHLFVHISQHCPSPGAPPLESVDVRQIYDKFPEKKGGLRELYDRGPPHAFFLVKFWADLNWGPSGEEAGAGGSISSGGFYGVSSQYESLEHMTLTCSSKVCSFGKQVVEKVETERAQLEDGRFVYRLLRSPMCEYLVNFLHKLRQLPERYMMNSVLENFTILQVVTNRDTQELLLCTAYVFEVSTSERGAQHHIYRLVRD

SMILES | inhibition at 10 µM [%]
CN(c1cccc(N(C)c2ncccc2C(=O)O)c1)c1ccc(C23CC4CC(CC(C4)C2)C3)cc1Cl [Compound 132] | 100
CN(c1ccc(S(=O)(=O)N(C)c2ccc(C34CC5CC(CC(C5)C3)C4)cc2)cc1)c1ncccc1C(=O)O [Compound 231] | 0
CC(=O)N(c1ccc(N(C(C)=O)c2ccccc2C(=O)O)cc1)c1ccc(C23CC4CC(CC(C4)C2)C3)cc1 [Compound 164] | 20
O=C(Nc1ccc(C23CC4CC(CC(C4)C2)C3)cc1)c1ccc(Cl)c(Nc2ncccc2C(=O)O)c1 [Compound 247] | 95
CN(c1cnc(Nc2ccc(C34CC5CC(CC(C5)C3)C4)cc2Cl)cn1)c1ccccc1C(=O)O [Compound 144] | 100
O=C(O)c1cccc(Nc2ccc(S(=O)(=O)Nc3ccc(C45CC6CC(CC(C6)C4)C5)cc3)cc2)n1 [Compound 194] | 20
O=C(O)[C@@H]1CCCN1C(=O)Nc1ccc(Nc2ccc(C34CC5CC(CC(C5)C3)C4)cc2Cl)cc1 [Compound 50] | 0
O=C(O)c1ccccc1NS(=O)(=O)c1ccc(Nc2ccc(C34CC5CC(CC(C5)C3)C4)cc2Cl)cc1 [Compound 223] | 100
O=C(Nc1ccccc1C(=O)O)c1ccc(Nc2ccc(C34CC5CC(CC(C5)C3)C4)cc2Cl)cc1 [Compound 229] | 91
CN(C(=O)c1ccc(Nc2cccc(C(=O)O)n2)cc1)c1ccc(C23CC4CC(CC(C4)C2)C3)cc1 [Compound 206] | 52
Clc1cc(C23CC4CC(CC(C4)C2)C3)ccc1Nc1ccc(Cn2cncn2)cc1 [Compound 9] | 76
O=C(O)c1cccnc1Nc1ccc(S(=O)(=O)Nc2ccc(C34CC5CC(CC(C5)C3)C4)cc2)cc1 [Compound 188] | 101
CCOC(=O)c1cccc(Nc2ccc(C(=O)Nc3ccc(C45CC6CC(CC(C6)C4)C5)cc3)cc2)n1 [Compound 16] | 0
CN(c1ccc(CC(=O)Nc2ccccc2C(=O)O)cc1)c1ccc(C23CC4CC(CC(C4)C2)C3)cc1 [Compound 243] | 67
CCCCN(CCCC)C(=O)c1ccc(Nc2ccccc2C(=O)O)cc1 [Compound 159] | 41
CN(c1ccc(Nc2ccc(C34CC5CC(CC(C5)C3)C4)cc2)cc1)c1ccccc1C(=O)O [Compound 99] | 85
O=C(Nc1ccc(C23CC4CC(CC(C4)C2)C3)cc1)c1ccc(Oc2cccc(C(=O)O)n2)cc1 [Compound 212] | 77
COC(=O)c1cccnc1Nc1ccc(Nc2ccc(C34CC5CC(CC(C5)C3)C4)cc2Cl)cc1 [Compound 17] | 7
O=C(O)c1cn(Cc2cccc(Nc3ccc(C45CC6CC(CC(C6)C4)C5)cc3Cl)c2)cn1 [Compound 127] | 27
O=C(O)c1ccccc1Nc1ccc(Nc2ccc(C34CC5CC(CC(C5)C3)C4)cc2)cc1C(F)(F)F [Compound 80] | 40
CC(C)c1ccccc1-c1ccc(Oc2ccc(N(C)c3ccccc3C(=O)O)cc2)c(Cl)c1 [Compound 236] | 62

SMILES | inhibition at 10 µM [%]
O=C(O)c1cncc(Nc2cc(Nc3ccc(C45CC6CC(CC(C6)C4)C5)cc3Cl)cc(C(F)(F)F)c2)c1 [Compound 153] | 100
CC(C)COc1ccc(Nc2ccc(N(C)c3ccc(C45CC6CC(CC(C6)C4)C5)cc3)cc2)c(C(=O)O)c1 [CP-453] | 0
CN(c1ccc(C23CC4CC(CC(C4)C2)C3)cc1)c1cc(N(C)c2ncccc2C(=O)O)cc(C(F)(F)F)c1 [Compound 152] | 102
CN(c1ccc(Nc2cccc(C(=O)O)n2)cc1)c1ccc(C23CC4CC(CC(C4)C2)C3)cc1 [Compound 193] | 86
O=C(O)c1cccnc1Nc1cccc(C23CC4CC(CC(C4)C2)C3)c1 [Compound 96] | 96
CN(c1ccc(Nc2ccccc2C(=O)O)cc1)c1ccc(C23CC4CC(CC(C4)C2)C3)cc1 [Compound 172] | 100
O=C(O)c1cccn1Cc1ccc(Nc2ccc(C34CC5CC(CC(C5)C3)C4)cc2Cl)cc1 [Compound 124] | 86
CNC(=O)c1cc(OC)ccc1Nc1ccc(N(C)c2ccc(C(F)(F)F)cc2)cc1 [compound 430] | 63
O=C(O)c1cccnc1Nc1ccc(Nc2cccc(C34CC5CC(CC(C5)C3)C4)c2)cc1 [Compound 104] | 80
COc1ccc(Nc2ccc(N(C)c3ccc(C(F)(F)F)cc3)cc2)c(C(=O)N(C)C)c1 [compound 431] | 37
COC(=O)c1ccccc1Nc1cc(Nc2ccc(C34CC5CC(CC(C5)C3)C4)cc2)cc(C(F)(F)F)c1 [Compound 3] | 0
O=C(O)c1cccnc1CN1CCC(Nc2ccc(C34CC5CC(CC(C5)C3)C4)cc2Cl)C1 (stereo not drawn) [Compound 137] | 99
CN(C(=O)c1ccc(Nc2ccccc2C(=O)O)cc1)c1ccc(C23CC4CC(CC(C4)C2)C3)cc1 [Compound 192] | 99
CC12CC3CC(C)(C1)CC(c1ccc(NC(=O)c4cccc(Nc5ccccc5C(=O)O)c4)cc1)(C3)C2 [Compound 222] | 45
O=C(O)Cn1cnc2cc(Nc3ccc(C45CC6CC(CC(C6)C4)C5)cc3Cl)ccc21 [Compound 108] | 86
CN(c1ccc(N(c2ccc(C(=O)O)cn2)c2ccc(C(=O)O)cn2)cc1)c1ccc(C23CC4CC(CC(C4)C2)C3)cc1 [Compound 204] | 99
COc1cccc(N(C)c2ccc(N(C)c3ccc(C45CC6CC(CC(C6)C4)C5)cc3)cc2)c1C(=O)O [Compound 238] | 100
O=C(O)c1cccnc1Nc1ccc(Nc2ccc(C34CC5CC(CC(C5)C3)C4)cc2Cl)cc1 [Compound 59] | 99
O=C(O)c1cccnc1Nc1ccc2c(c1)N(Cc1ccc(C34CC5CC(CC(C5)C3)C4)cc1Cl)CC2 [Compound 131] | 37
O=C(O)c1cccnc1Nc1cc(Nc2ccc(C34CC5CC(CC(C5)C3)C4)cc2)cc(C(F)(F)F)c1 [Compound 27] | 90
CC12CC3CC(C)(C1)CC(c1ccc(NS(=O)(=O)c4ccc(Nc5ncccc5C(=O)O)cc4)c(Cl)c1)(C3)C2 [Compound 265] | 78

Same assay, conditions: compound at 10 μM; Table 3

SMILES | inhibition at 10 µM [%]
Cc1cc(N(C)c2ccc(C3CCCCC3)cc2)ccc1Nc1ccc(CN(C)C)cc1C(=O)O [CP-640] | 20
CN(c1ccc(Nc2cccc(C(=O)O)n2)cc1)c1ccc(C(F)(F)F)cc1 [CP-648] | 89
COc1ccc(Nc2ccc(N(C)c3ccc(S(F)(F)(F)(F)F)cc3)nc2)c(C(=O)O)c1 [CP-595] | 51
COc1ccc(Nc2ccc(Oc3ccc(OC(F)(F)F)cc3Cl)nc2)c(C(=O)O)c1 [CP-600] | 37
COc1ccc(Nc2ccc(Oc3ccc(C(F)(F)F)cc3Cl)cc2)c(C(=O)O)c1 [CP-544] | 98
Cc1cc(N(C)c2ccc(C3CCCCC3)cc2)ccc1Nc1ccc(OCC(C)(C)C)cc1C(=O)O [CP-633] | 25
COc1ccc(Nc2cnc(Oc3ccc(C4CCCCC4)cc3Cl)nc2)c(C(=O)O)c1 [CP-616] | 73
COc1ccc(Nc2ccc(N(C)c3ccc(Cl)cc3Cl)cc2)c(C(=O)O)c1 [CP-542] | 49
Cc1cc(N(C)c2ccc(C3CCCCC3)cc2)ncc1Nc1cccc(C(=O)O)n1 [CP-652] | 37
COc1ccc(Nc2ccc(N(C)c3ccc(C(F)(F)F)cc3)nc2)c(C(=O)O)c1 [CP-592] | 40
O=C(O)c1cccc(Nc2cccc(Nc3ccc(C4CCCCC4)cc3Cl)c2)n1 [CP-682] | 51
COc1ccc(Nc2ccc(N(C)c3cc(C(F)(F)F)nn3C)cc2)c(C(=O)O)c1 [CP-624] | 15
COc1ccc(Nc2cccc(C(=O)Nc3ccc(C4CCCCC4)cc3Cl)c2)c(C(=O)O)c1 [CP-669] | 75
COCCC(=O)Nc1ccc(C(=O)OC)c(Nc2ccc(N(C)c3ccc(C45CC6CC(CC(C6)C4)C5)cc3)cc2)c1 [CP-472] | 1
Cc1cc(N(C)c2ccc(OC(F)(F)F)cc2)ccc1Nc1cccc(C(=O)O)n1 [CP-647] | 87
COc1ccc(Nc2ccc(Nc3ccc(C45CC6CC(CC(C6)C4)C5)cc3Cl)cc2)nc1C(=O)O [CP-650] | 93
Cc1cc(N(C)c2ccc(C3CCCCC3)cc2)ccc1Nc1ccc(CN)cc1C(=O)O [CP-635] | 27
COc1ccc(Nc2ccc(N(C)c3ccc(C4=CCC(F)(F)CC4)cc3)cc2)c(C(=O)O)c1 [CP-557] | 34
O=C(Nc1ccc(C2CCCCC2)cc1Cl)c1cccc(Nc2ccc(OC3CC3)cc2C(=O)O)c1 [CP-672] | 55
COc1ccc(Nc2ccc(N(C)c3ccc(C45CC6CC(CC(C6)C4)C5)cc3)cc2F)c(C(=O)O)c1 [CP-537] | 73
CNS(=O)(=O)c1ccc(Nc2ccc(N(C)c3ccc(C4CCCCC4)cc3)cc2C)c(C#N)c1 [CP-657] | 18
COc1ccc(Nc2ccc(N(C)c3ccc(C4CCCCC4)cc3)cc2C)c(C(F)(F)F)c1 [CP-629] | 24
CNS(=O)(=O)c1ccc(Nc2ccc(N(C)c3ccc(C4CCCCC4)cc3)cc2C)nc1C(=O)O [CP-656] | 90
Cc1cc(N(C)c2ccc(C3CCCCC3)cc2)ccc1Nc1ccc(OC(F)(F)F)cc1C(=O)O [CP-580] | 58
